Reference: ChEMBL document CHEMBL5385906, “Discovery of a Potent, Selective, and Orally Bioavailable Tool Compound for Probing the Role of Lysophosphatidic Acid Type 2 Receptor Antagonists in Fibrotic Disorders” (J Med Chem, 2023)

Legend:
[1] = Apparent permeability across basolateral to apical side in human Caco-2 cells at 10 uM measured after 60 mins by LC-MS/MS analysis
[2] = molecular target: Lysophosphatidic acid receptor 1 (Homo sapiens, UniProt Q92633)
Description: Antagonist activity at human LPA1 receptor expressed in CHO cells assessed as inhibition of LPA-induced calcium mobilization pretreated for 15 mins followed by LPA stimulation by FLIPR analysis

[3] = molecular target: Lysophosphatidic acid receptor 2 (Homo sapiens, UniProt Q9HBW0)
Chain of Lysophosphatidic acid receptor 2 (Homo sapiens, UniProt Q9HBW0) (Q9HBW0 whole entry): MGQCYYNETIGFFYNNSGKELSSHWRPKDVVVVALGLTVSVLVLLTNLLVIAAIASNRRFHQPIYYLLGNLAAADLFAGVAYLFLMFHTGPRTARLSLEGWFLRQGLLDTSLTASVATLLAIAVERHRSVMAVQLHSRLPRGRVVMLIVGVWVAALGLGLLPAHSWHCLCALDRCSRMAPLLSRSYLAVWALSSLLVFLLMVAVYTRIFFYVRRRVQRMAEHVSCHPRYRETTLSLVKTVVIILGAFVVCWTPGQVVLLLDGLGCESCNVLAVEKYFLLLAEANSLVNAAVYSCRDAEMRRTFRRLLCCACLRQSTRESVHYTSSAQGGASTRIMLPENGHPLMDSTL
Description: Antagonist activity at human LPA2 receptor expressed in CHO cells assessed as inhibition of LPA-induced calcium mobilization pretreated for 15 mins followed by LPA stimulation by FLIPR analysis

[4] = Protein binding in mouse plasma assessed as fraction unbound at 0.5 uM measured after 5 hrs by LC-MS/MS analysis
in vitro [5] = conditions: C57BL/6J, mouse, liver microsomes
Description: Intrinsic clearance in C57BL/6J mouse liver microsomes at 0.5 uM in presence of NADPH regenerating system measured for 45 mins per mg protein by LC-MS/MS analysis

[6] = Efflux ratio of apparent permeability across apical to basolateral to basolateral to apical side in human Caco-2 cells at 10 uM measured after 60 mins by LC-MS/MS analysis
in vivo [7] = conditions: C57BL/6J, mouse, plasma, po, 30 mg/kg
in vivo [8] = conditions: C57BL/6J, mouse, po, 30 mg/kg
in vitro [9] = conditions: human, liver microsomes, CLH
Description: Intrinsic clearance in human liver microsomes at 0.5 uM in presence of NADPH regenerating system measured for 45 mins per mg protein by LC-MS/MS analysis

in vivo [10] = conditions: C57BL/6J, mouse, plasma, po, 30 mg/kg; remark: listed apart in the source
in vivo [11] = conditions: C57BL/6J, mouse, lung, po, 30 mg/kg
[12] = Half life in C57BL/6J mouse at 30 mg/kg, po and 2 mg/kg, iv by LC-MS/MS analysis; conditions: in vivo
[13] = molecular target: Lysophosphatidic acid receptor 2 (Mus musculus, UniProt Q9JL06); assay: Antagonist activity at mouse LPA2 receptor expressed in HeLa cells assessed as inhibition of LPA-induced calcium mobilization pretreated for 15 mins followed by LPA stimulation by FLIPR analysis; type: functional, cell-based
Chain of Lysophosphatidic acid receptor 2 (Mus musculus, UniProt Q9JL06) (Q9JL06 whole entry): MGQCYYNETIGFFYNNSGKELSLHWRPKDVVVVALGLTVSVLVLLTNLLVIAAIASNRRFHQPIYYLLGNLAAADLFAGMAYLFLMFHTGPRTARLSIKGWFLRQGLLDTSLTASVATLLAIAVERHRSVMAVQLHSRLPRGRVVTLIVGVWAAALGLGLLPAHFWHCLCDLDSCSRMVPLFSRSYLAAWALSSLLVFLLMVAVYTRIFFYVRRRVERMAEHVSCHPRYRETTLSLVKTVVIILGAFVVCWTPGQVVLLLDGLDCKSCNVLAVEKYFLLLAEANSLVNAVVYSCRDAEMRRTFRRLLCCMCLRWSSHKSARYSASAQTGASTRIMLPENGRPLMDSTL

in vivo [14] = conditions: C57BL/6J, mouse, lung, po, 30 mg/kg; remark: listed apart in the source
[15] = Protein binding in mouse lungs assessed as fraction unbound at 5 uM measured after 5 hrs by LC-MS/MS analysis
[16] = Protein binding in human plasma assessed as fraction unbound at 0.5 uM measured after 5 hrs by LC-MS/MS analysis
[17] = Oral absorption in C57BL/6J mouse at 30 mg/kg by LC-MS/MS analysis; conditions: in vivo
[18] = Apparent permeability across apical to basolateral side in human Caco-2 cells at 10 uM measured after 60 mins by LC-MS/MS analysis

Chain of Lysophosphatidic acid receptor 1 (Q92633 whole entry): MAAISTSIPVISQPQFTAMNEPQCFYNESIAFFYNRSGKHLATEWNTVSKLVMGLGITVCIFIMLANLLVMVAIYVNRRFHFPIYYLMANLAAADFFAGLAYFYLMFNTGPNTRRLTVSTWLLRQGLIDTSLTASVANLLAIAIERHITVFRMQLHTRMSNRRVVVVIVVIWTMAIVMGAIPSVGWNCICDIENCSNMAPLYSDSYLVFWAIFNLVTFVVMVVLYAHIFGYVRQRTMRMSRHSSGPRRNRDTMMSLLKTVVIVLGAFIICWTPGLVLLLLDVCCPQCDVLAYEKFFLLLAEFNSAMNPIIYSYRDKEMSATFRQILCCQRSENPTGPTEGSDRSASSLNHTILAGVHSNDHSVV

## COC(=O)Nc1nc(C)c(S(=O)(=O)N2CCN(C[C@H](C)Nc3ncnc4c(-c5c(C)noc5C)cccc34)CC2)s1
[1]
  Papp B→A at 1 h, 10 µM: 9.29 ×10⁻⁶ cm/s
[2]
  IC50: > 50.1 µM
[3]
  IC50: 0.000759 µM
[4]
  fraction unbound at 5 h, 0.5 µM: 0.0043
In vitro [5]
  microsomal CLint at 0.75 h, 0.5 µM: 94 µL/min/mg
[6]
  efflux ratio at 1 h, 10 µM: 6.3
In vivo [7]
  AUC(0-t): 124000 ng·h/mL
In vivo [8]
  bioavailability: 92%
In vitro [9]
  microsomal CLint at 0.75 h, 0.5 µM: 89 µL/min/mg
In vivo [10]
  Cmax: 76200 ng/mL
In vivo [11]
  Cmax: 15100 ng/mL
[12]
  half-life: 1.32 h
[13]; read-out: pIC50 (converted)
  IC50: 0.0282 µM
In vivo [14]
  AUC(0-t): 25800 ng·h/mL
[15]
  fraction unbound at 5 h, 5 µM: 0.0185
[16]
  fraction unbound at 5 h, 0.5 µM: < 0.01
[17]
  Fa: 96%
[18]
  Papp A→B at 1 h, 10 µM: 1.47 ×10⁻⁶ cm/s

## COC(=O)Nc1nc(C)c(S(=O)(=O)N2CCN(C[C@H](C)Nc3ncnc4c(-c5cccc(CN6CCCC6)c5)cccc34)CC2)s1
[1]
  Papp B→A at 1 h, 10 µM: 8.95 ×10⁻⁶ cm/s
[2]
  IC50: > 50.1 µM
[3]
  IC50: 0.000282 µM
[4]
  fraction unbound at 5 h, 0.5 µM: 0.0059
In vitro [5]
  microsomal CLint at 0.75 h, 0.5 µM: 133 µL/min/mg
[6]
  efflux ratio at 1 h, 10 µM: 98.1
In vivo [7]
  AUC(0-t): 12900 ng·h/mL
In vivo [8]
  bioavailability: 7%
In vitro [9]
  microsomal CLint at 0.75 h, 0.5 µM: 104 µL/min/mg
In vivo [10]
  Cmax: 4230 ng/mL
In vivo [11]
  Cmax: 2680 ng/mL
[12]
  half-life: 2.45 h
[13]; read-out: pIC50 (converted)
  IC50: 0.00457 µM
In vivo [14]
  AUC(0-t): 19500 ng·h/mL
[15]
  fraction unbound at 5 h, 5 µM: 0.0187
[16]
  fraction unbound at 5 h, 0.5 µM: < 0.01
[17]
  Fa: 9%
[18]
  Papp A→B at 1 h, 10 µM: 0.09 ×10⁻⁶ cm/s

## C[C@@H](CN1CCN(S(=O)(=O)c2ccc(Cl)c(Cl)c2)CC1)Nc1ncnc2cnn(C)c12
[3]
  IC50: 17.4 µM

## C[C@@H](CN1CCN(S(=O)(=O)c2ccc(Cl)c(Cl)c2)CC1)Nc1ncnc2cc[nH]c12
[3]
  IC50: 15.8 µM

## COC(=O)Nc1nc(C)c(S(=O)(=O)N2CCN(C[C@H](C)Nc3ncnc4c(-c5sc(C)nc5C)cccc34)CC2)s1
[1]
  Papp B→A at 1 h, 10 µM: 5.39 ×10⁻⁶ cm/s
[2]
  IC50: > 0.501 µM
[3]
  IC50: 0.000251 µM
[4]
  fraction unbound at 5 h, 0.5 µM: 0.0372
In vitro [5]
  microsomal CLint at 0.75 h, 0.5 µM: 15 µL/min/mg
[6]
  efflux ratio at 1 h, 10 µM: 0.6
In vivo [7]
  AUC(0-t): 230000 ng·h/mL
In vivo [8]
  bioavailability: 64%
In vitro [9]
  microsomal CLint at 0.75 h, 0.5 µM: 15 µL/min/mg
In vivo [10]
  Cmax: 72300 ng/mL
In vivo [11]
  Cmax: 19900 ng/mL
[12]
  half-life: 1.88 h
[13]; read-out: pIC50 (converted)
  IC50: 0.00692 µM
In vivo [14]
  AUC(0-t): 56200 ng·h/mL
[15]
  fraction unbound at 5 h, 5 µM: 0.022
[16]
  fraction unbound at 5 h, 0.5 µM: 0.0002
[17]
  Fa: 76%
[18]
  Papp A→B at 1 h, 10 µM: 9.2 ×10⁻⁶ cm/s

## COC(=O)Nc1nc(C)c(S(=O)(=O)N2CCN(C[C@H](C)Nc3ncnc4c(C(F)(F)F)cccc34)CC2)s1
[3]
  IC50: 0.0447 µM

## C[C@@H](CN1CCN(S(=O)(=O)c2ccc(Cl)c(Cl)c2)CC1)Nc1ncnc2cc(C(F)(F)F)ccc12
[3]
  IC50: 18.2 µM

## COC(=O)Nc1nc(C)c(S(=O)(=O)N2CCN(C[C@H](C)Nc3ncnc4c(-c5ccc(F)c(CN(C)C)c5)cccc34)CC2)s1
[2]
  IC50: > 50.1 µM
[13]; read-out: IC50
  IC50: 0.00646 µM

## COC(=O)Nc1nc(C)c(S(=O)(=O)N2CCN(C[C@H](C)Nc3ncnc4c(C(=O)N(C)C)cccc34)CC2)s1
[13]; read-out: pIC50 (converted)
  IC50: 3.98 µM

## Cc1csc2c(N[C@@H](C)C(=O)N3CCN(S(=O)(=O)c4ccc(Cl)c(Cl)c4)CC3)ncnc12
[2]
  IC50: > 50.1 µM

## Cc1csc2c(N[C@@H](C)CN3CCN(S(=O)(=O)c4ccc(Cl)c(Cl)c4)CC34CC4)ncnc12
[3]
  IC50: 9.33 µM

## Cc1csc2c(NC3(CN4CCN(S(=O)(=O)c5ccc(Cl)c(Cl)c5)CC4)CC3)ncnc12
[3]
  IC50: 8.32 µM

## Cc1csc2c(N[C@@H](C)CN3CC4CC3CN4S(=O)(=O)c3ccc(Cl)c(Cl)c3)ncnc12 (stereo not given in full)
[2]
  IC50: 18.2 µM
[3]
  IC50: 11.2 µM

## Cc1noc(-c2ccc(S(=O)(=O)N3CCN(C[C@H](C)Nc4ncnc5c(C(F)(F)F)cccc45)CC3)s2)c1C
[3]
  IC50: 0.00575 µM

## Cc1csc2c(N[C@@H](C)CNC3CCC(NS(=O)(=O)c4ccc(Cl)c(Cl)c4)CC3)ncnc12 (stereo not given in full)
[3]
  IC50: 35.5 µM

## Cc1noc(-c2ccc(S(=O)(=O)N3CCN(C[C@H](C)Nc4ncnc5c(C)csc45)CC3)s2)c1C
[3]
  IC50: 0.0437 µM

## CC(=O)Nc1ccc(S(=O)(=O)N2CCN(C[C@H](C)Nc3ncnc4c(C)csc34)CC2)cn1
[2]
  IC50: > 50.1 µM
[3]
  IC50: 13.8 µM

## Cc1csc2c(N[C@@H](C)CNC3CCN(S(=O)(=O)c4ccc(Cl)c(Cl)c4)CC3)ncnc12
[3]
  IC50: 17 µM

## CC(=O)Nc1ccc(S(=O)(=O)N2CCN(C[C@H](C)Nc3ncnc4c(C)csc34)CC2)cc1Cl
[3]
  IC50: 4.07 µM

## C[C@@H](CN1CCN(S(=O)(=O)c2ccc(Cl)c(Cl)c2)CC1)Nc1ncnc2ccn(C)c12
[3]
  IC50: 8.13 µM

## Cc1csc2c(N3CCC[C@H]3CN3CCN(S(=O)(=O)c4ccc(Cl)c(Cl)c4)CC3)ncnc12
[3]
  IC50: 30.2 µM
